Experimental data from publication PMC6155691, “Synthesis and Biological Evaluation of Novel 8-Morpholinoimidazo[1,2-a]pyrazine Derivatives Bearing Phenylpyridine/Phenylpyrimidine-Carboxamides” (Molecules : A Journal of Synthetic Chemistry and Natural …, 2017).
Read-outs that look alike come from different tables or passages of the source.

Assays:
[1] = test system: A549 cell line (lung cancer); experiment: MTT cytotoxicity assay, A549; assay type: cell-based; conditions: Homo sapiens, 72 h, average of two separate determinations, NA: No Activity
Description: (§1) The target compounds 12a–g, 13a–g and 14a–g were evaluated for their in vitro cytotoxicity against three cancer cell lines (A549, PC-3 and MCF-7) by the standard MTT assay, with compound II and GDC-0941 as positive controls. […] The results expressed as inhibition rates or IC50 values are summarized in Table 1 and Table 2, where the values are the average of at least two independent experiments.
(§2) The in vitro cytotoxic activity of all the compounds 12a–g, 13a–g and 14a–g was evaluated with the A549, PC-3 and MCF-7 cell lines by the standard MTT assay, with compounds II and GDC-0941 as positive controls. The cancer cell lines were cultured in minimum essential medium (MEM) supplement with 10% fetal bovine serum (FBS). Approximately 4 × 10^3 cells, suspended in MEM medium, were plated onto each well of a 96-well plate and incubated in 5% CO2 at 37 °C for 24 h. The test compounds at indicated final concentrations were added to the culture medium and the cell cultures were continued for 72 h. Fresh MTT was added to each well at a terminal concentration of 5 μg/mL and incubated with cells at 37 °C for 4 h. The formazan crystals were dissolved in 100 μL of DMSO in each well, and the absorbance at 492 nm (for the MTT formazan) and 630 nm (for the reference wavelength) was measured with an ELISA reader. All of the compounds were tested three times in each of the cell lines. The results expressed as inhibition rates or IC50 (half-maximal inhibitory concentration) were the averages of two determinations and calculated by using the Bacus Laboratories Incorporated Slide Scanner (Bliss) software (the Bacus Laboratories Inc. Slide Scanner (BLISS) system, Lombard, IL, USA).

[2] = test system: PC-3 cell line (prostate cancer); experiment: MTT cytotoxicity assay, PC-3; assay type: cell-based; conditions: Homo sapiens, 72 h, average of two separate determinations, NA: No Activity
Description: as §1, §2

[3] = test system: MCF-7 cell line (breast cancer); experiment: MTT cytotoxicity assay, MCF-7; assay type: cell-based; conditions: Homo sapiens, MCF7, 72 h, average of two separate determinations, NA: No Activity
Description: as §1, §2

PI3Kα kinase = PI3Kα kinase (Homo sapiens, UniProt P42336); experiment: Kinase-Glo Luminescent Kinase Assay, PI3Kα; assay type: biochemical
Sequence of PI3Kα kinase (P42336 whole entry): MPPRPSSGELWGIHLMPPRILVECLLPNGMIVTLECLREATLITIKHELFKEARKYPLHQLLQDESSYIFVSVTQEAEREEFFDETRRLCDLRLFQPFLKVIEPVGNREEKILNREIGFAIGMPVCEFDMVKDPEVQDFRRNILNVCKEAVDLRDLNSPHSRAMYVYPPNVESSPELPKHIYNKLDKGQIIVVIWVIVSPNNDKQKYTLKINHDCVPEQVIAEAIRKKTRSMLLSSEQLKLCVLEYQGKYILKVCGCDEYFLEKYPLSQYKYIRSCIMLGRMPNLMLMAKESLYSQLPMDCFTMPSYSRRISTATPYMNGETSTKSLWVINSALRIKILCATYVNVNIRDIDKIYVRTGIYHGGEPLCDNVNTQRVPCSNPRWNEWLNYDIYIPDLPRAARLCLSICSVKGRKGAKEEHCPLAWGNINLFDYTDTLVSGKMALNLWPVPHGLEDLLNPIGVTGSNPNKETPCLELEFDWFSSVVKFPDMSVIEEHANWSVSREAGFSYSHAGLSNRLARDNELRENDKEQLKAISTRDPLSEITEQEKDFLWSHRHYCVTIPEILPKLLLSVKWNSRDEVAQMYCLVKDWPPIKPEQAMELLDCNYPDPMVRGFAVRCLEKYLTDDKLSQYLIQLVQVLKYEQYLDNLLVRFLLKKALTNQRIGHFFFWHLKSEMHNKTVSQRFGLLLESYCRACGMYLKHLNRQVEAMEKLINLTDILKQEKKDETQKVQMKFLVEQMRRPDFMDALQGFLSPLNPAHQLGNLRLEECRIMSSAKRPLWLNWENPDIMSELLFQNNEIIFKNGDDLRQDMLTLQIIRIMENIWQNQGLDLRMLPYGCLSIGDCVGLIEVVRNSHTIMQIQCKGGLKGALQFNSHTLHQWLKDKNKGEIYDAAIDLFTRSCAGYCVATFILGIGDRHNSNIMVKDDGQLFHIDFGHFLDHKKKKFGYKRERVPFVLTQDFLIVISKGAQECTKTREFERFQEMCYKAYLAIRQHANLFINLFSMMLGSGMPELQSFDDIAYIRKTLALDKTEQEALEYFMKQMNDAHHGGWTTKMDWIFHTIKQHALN
Sequence of PI3Kα kinase (P27986 whole entry partner): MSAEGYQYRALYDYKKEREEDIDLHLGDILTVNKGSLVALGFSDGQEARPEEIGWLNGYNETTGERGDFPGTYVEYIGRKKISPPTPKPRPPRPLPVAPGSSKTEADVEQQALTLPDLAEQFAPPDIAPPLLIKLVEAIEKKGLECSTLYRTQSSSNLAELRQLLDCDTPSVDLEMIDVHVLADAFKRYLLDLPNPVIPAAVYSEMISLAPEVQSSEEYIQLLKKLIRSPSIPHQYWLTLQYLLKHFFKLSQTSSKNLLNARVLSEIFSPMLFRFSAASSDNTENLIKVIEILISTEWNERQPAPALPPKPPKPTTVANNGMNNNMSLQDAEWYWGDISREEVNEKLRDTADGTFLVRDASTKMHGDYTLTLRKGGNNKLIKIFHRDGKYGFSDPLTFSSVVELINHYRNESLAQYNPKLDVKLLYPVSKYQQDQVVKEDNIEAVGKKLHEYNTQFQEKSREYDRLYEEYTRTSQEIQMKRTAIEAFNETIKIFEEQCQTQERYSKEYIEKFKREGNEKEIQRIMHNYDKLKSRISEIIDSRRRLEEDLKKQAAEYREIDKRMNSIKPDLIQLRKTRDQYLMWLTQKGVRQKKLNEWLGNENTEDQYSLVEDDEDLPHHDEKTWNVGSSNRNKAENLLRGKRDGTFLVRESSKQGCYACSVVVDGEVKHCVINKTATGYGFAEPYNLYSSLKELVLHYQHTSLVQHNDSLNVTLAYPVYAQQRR

PI3Kα = conditions: cited from earlier work
mTOR = test system: mTOR; set-up: method as in PMID 17339109; conditions: read-out: IC50 against mTOR; cited from earlier work

Row | melting point [°C] | Compound | IC50 [1] [µM] | IC50 [2] [µM] | IC50 [3] [µM] | further results
1 | 268 to 270 | O=C(Nc1ccc(-c2cn3ccnc3c(N3CCOCC3)n2)cc1)c1ccc(-c2ccccc2)cn1 [12a] | 58.7 ± 1.99 | 50.3 ± 2.04 |  | 
2 | 261 to 264 | O=C(Nc1ccc(-c2cn3ccnc3c(N3CCOCC3)n2)cc1)c1ccc(-c2cccc(F)c2)cn1 [12b, 5-(3-Fluorophenyl)-N-(4-(8-morpholinoimidazo[1,2-a]pyrazin-6-yl)phenyl)picolinamide] |  |  |  | 
3 | 255 to 257 | O=C(Nc1ccc(-c2cn3ccnc3c(N3CCOCC3)n2)cc1)c1ccc(-c2ccc(F)cc2F)cn1 [12c, 5-(2,4-Difluorophenyl)-N-(4-(8-morpholinoimidazo[1,2-a]pyrazin-6-yl)phenyl)picolinamide] |  |  |  | 
4 | 233 to 235 | O=C(Nc1ccc(-c2cn3ccnc3c(N3CCOCC3)n2)cc1)c1ccc(-c2ccc(C(F)(F)F)cc2)cn1 [12d, N-(4-(8-Morpholinoimidazo[1,2-a]pyrazin-6-yl)phenyl)-5-(4-(trifluoromethyl)phenyl)picolinamide] | 15.3 ± 0.88 | 69.7 ± 1.13 |  | 
5 | 255 to 257 | COc1ccc(-c2ccc(C(=O)Nc3ccc(-c4cn5ccnc5c(N5CCOCC5)n4)cc3)nc2)cc1 [12e, 5-(4-Methoxyphenyl)-N-(4-(8-morpholinoimidazo[1,2-a]pyrazin-6-yl)phenyl)picolinamide] |  |  |  | 
6 | 241 to 243 | Cc1cccc(-c2ccc(C(=O)Nc3ccc(-c4cn5ccnc5c(N5CCOCC5)n4)cc3)nc2)c1 [12f, N-(4-(8-Morpholinoimidazo[1,2-a]pyrazin-6-yl)phenyl)-5-(m-tolyl)picolinamide] | 19.1 ± 1.1 | 26.8 ± 1.47 |  | 
7 | 258 to 260 | Cc1ccc(-c2ccc(C(=O)Nc3ccc(-c4cn5ccnc5c(N5CCOCC5)n4)cc3)nc2)cc1 [12g, N-(4-(8-Morpholinoimidazo[1,2-a]pyrazin-6-yl)phenyl)-5-(p-tolyl)picolinamide] | 68.1 ± 0.89 | 42.3 ± 0.86 |  | 
8 | 261 to 262 | O=C(Nc1ccc(-c2cn3ccnc3c(N3CCOCC3)n2)cc1)c1cc(-c2ccccc2)ccn1 [13a, N-(4-(8-Morpholinoimidazo[1,2-a]pyrazin-6-yl)phenyl)-4-phenylpicolinamide] |  |  |  | 
9 | 237 to 239 | O=C(Nc1ccc(-c2cn3ccnc3c(N3CCOCC3)n2)cc1)c1cc(-c2cccc(F)c2)ccn1 [13b, 4-(3-Fluorophenyl)-N-(4-(8-morpholinoimidazo[1,2-a]pyrazin-6-yl)phenyl)picolinamide] |  |  |  | 
10 | 266 to 267 | O=C(Nc1ccc(-c2cn3ccnc3c(N3CCOCC3)n2)cc1)c1cc(-c2ccc(F)cc2F)ccn1 [13c, 4-(2,4-Difluorophenyl)-N-(4-(8-morpholinoimidazo[1,2-a]pyrazin-6-yl)phenyl)picolinamide] |  |  |  | 
11 | 269 to 272 | O=C(Nc1ccc(-c2cn3ccnc3c(N3CCOCC3)n2)cc1)c1cc(-c2ccc(C(F)(F)F)cc2)ccn1 [13d, N-(4-(8-Morpholinoimidazo[1,2-a]pyrazin-6-yl)phenyl)-4-(4-(trifluoromethyl)phenyl)picolinamide] | 42 ± 1.49 | 55.6 ± 1.32 | 62.5 ± 1.99 | 
12 | 257 to 260 | COc1ccc(-c2ccnc(C(=O)Nc3ccc(-c4cn5ccnc5c(N5CCOCC5)n4)cc3)c2)cc1 [13e, 4-(4-Methoxyphenyl)-N-(4-(8-morpholinoimidazo[1,2-a]pyrazin-6-yl)phenyl)picolinamide] | 23.9 ± 0.81 | 59.7 ± 2.22 | 74.9 ± 1.14 | 
13 | 233 to 234 | Cc1cccc(-c2ccnc(C(=O)Nc3ccc(-c4cn5ccnc5c(N5CCOCC5)n4)cc3)c2)c1 [13f, N-(4-(8-Morpholinoimidazo[1,2-a]pyrazin-6-yl)phenyl)-4-(m-tolyl)picolinamide] | 10.5 ± 0.82 | 65.61 ± 0.52 | 74.2 ± 1.86 | 
14 | 271 to 273 | Cc1ccc(-c2ccnc(C(=O)Nc3ccc(-c4cn5ccnc5c(N5CCOCC5)n4)cc3)c2)cc1 [13g, N-(4-(8-Morpholinoimidazo[1,2-a]pyrazin-6-yl)phenyl)-4-(p-tolyl)picolinamide] | 11.2 ± 1.08 |  | 7.89 ± 0.81 | 
15 | 272 to 275 | O=C(Nc1ccc(-c2cn3ccnc3c(N3CCOCC3)n2)cc1)c1cc(-c2ccccc2)ncn1 [14a, N-(4-(8-Morpholinoimidazo[1,2-a]pyrazin-6-yl)phenyl)-6-phenylpyrimidine-4-carboxamide] | 10.8 ± 1.62 |  |  | 
16 | 222 to 225 | Cc1ccc(-c2cc(C(=O)Nc3ccc(-c4cn5ccnc5c(N5CCOCC5)n4)cc3)ncn2)cc1 [14b, N-(4-(8-Morpholinoimidazo[1,2-a]pyrazin-6-yl)phenyl)-6-(p-tolyl)pyrimidine-4-carboxamide] | 8.88 ± 0.97 | 25 ± 1.19 | 6.69 ± 2.04 | inhibition at 10 µM (PI3Kα kinase; at 10 μM, Kinase-Glo, average of two separate determinations, read-out: PI3Kα 10 μM Inhibitory %): 58 ± 4.4%
17 | 269 to 271 | COc1ccc(-c2cc(C(=O)Nc3ccc(-c4cn5ccnc5c(N5CCOCC5)n4)cc3)ncn2)cc1 [14c, 6-(4-Methoxyphenyl)-N-(4-(8-morpholinoimidazo[1,2-a]pyrazin-6-yl)phenyl)pyrimidine-4-carboxamide] | 6.39 ± 1.04 | 12.7 ± 0.95 | 10.2 ± 1.62 | IC50 (PI3Kα kinase; Kinase-Glo, average of two separate determinations): 1.25 ± 0.13 µM; fold more active than lead compound II against PI3Kα kinase (PI3Kα kinase; ratio of IC50 values, 7.39 μM vs 1.25 μM): 6 fold
18 | 221 to 223 | O=C(Nc1ccc(-c2cn3ccnc3c(N3CCOCC3)n2)cc1)c1cc(-c2ccc(Br)cc2)ncn1 [14d, 6-(4-Bromophenyl)-N-(4-(8-morpholinoimidazo[1,2-a]pyrazin-6-yl)phenyl)pyrimidine-4-carboxamide] | 14.4 ± 1.01 | 37.1 ± 0.97 |  | 
19 | 235 to 237 | O=C(Nc1ccc(-c2cn3ccnc3c(N3CCOCC3)n2)cc1)c1cc(-c2ccc(Cl)cc2)ncn1 [14e, 6-(4-Chlorophenyl)-N-(4-(8-morpholinoimidazo[1,2-a]pyrazin-6-yl)phenyl)pyrimidine-4-carboxamide] | 17.4 ± 1.01 |  |  | 
20 | 259 to 260 | O=C(Nc1ccc(-c2cn3ccnc3c(N3CCOCC3)n2)cc1)c1cc(-c2ccc(F)cc2)ncn1 [14f, 6-(4-Fluorophenyl)-N-(4-(8-morpholinoimidazo[1,2-a]pyrazin-6-yl)phenyl)pyrimidine-4-carboxamide] | 58.2 ± 4.67 |  | 47.1 | 
21 | 278 to 281 | O=C(Nc1ccc(-c2cn3ccnc3c(N3CCOCC3)n2)cc1)c1cc(-c2ccc(C(F)(F)F)cc2)ncn1 [14g, N-(4-(8-Morpholinoimidazo[1,2-a]pyrazin-6-yl)phenyl)-6-(4-(trifluoromethyl)phenyl)pyrimidine-4-carboxamide] |  | 96.6 ± 2.58 |  | 
23 |  | CS(=O)(=O)N1CCN(Cc2cc3nc(-c4cccc5[nH]ncc45)nc(N4CCOCC4)c3s2)CC1 [GDC-0941, 2-(1H-Indazol-4-yl)-6-(4-methanesulfonyl-piperazin-1-ylmethyl)-4-morpholin-4-yl-thieno[3,2-d]pyrimidine, reference compound] | 6.99 ± 0.21 | 0.2 ± 0.08 | 0.07 ± 0.03 | 
